Experimental data from US10093678B2, “Azaspiro derivatives as TRPM8 antagonists” (RaQualia Pharma Inc., priority 2014, dated 2018).

target: T1, human TRPM8 (Homo sapiens, UniProt Q7Z2W7); experiment: Menthol-induced Ca2+ influx in HEK293 cells stably expressing human TRPM8; format: cell-based; conditions: 30 microM menthol-induced Ca2+ influx, read-out: IC50 against TRPM8
T1 construct: expressed in transfected cells; host or cells: HEK293
Method in brief: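 HEK293 cells stably expressing human TRPM8 were loaded with Fluo4-AM for 1 h at room temperature, preincubated 5 min with compound, then challenged with 30 microM menthol. Calcium rise was read by FDSS imaging. IC50 came from 11-point curves using duplicate-well means.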

T1 sequence (Q7Z2W7 whole entry): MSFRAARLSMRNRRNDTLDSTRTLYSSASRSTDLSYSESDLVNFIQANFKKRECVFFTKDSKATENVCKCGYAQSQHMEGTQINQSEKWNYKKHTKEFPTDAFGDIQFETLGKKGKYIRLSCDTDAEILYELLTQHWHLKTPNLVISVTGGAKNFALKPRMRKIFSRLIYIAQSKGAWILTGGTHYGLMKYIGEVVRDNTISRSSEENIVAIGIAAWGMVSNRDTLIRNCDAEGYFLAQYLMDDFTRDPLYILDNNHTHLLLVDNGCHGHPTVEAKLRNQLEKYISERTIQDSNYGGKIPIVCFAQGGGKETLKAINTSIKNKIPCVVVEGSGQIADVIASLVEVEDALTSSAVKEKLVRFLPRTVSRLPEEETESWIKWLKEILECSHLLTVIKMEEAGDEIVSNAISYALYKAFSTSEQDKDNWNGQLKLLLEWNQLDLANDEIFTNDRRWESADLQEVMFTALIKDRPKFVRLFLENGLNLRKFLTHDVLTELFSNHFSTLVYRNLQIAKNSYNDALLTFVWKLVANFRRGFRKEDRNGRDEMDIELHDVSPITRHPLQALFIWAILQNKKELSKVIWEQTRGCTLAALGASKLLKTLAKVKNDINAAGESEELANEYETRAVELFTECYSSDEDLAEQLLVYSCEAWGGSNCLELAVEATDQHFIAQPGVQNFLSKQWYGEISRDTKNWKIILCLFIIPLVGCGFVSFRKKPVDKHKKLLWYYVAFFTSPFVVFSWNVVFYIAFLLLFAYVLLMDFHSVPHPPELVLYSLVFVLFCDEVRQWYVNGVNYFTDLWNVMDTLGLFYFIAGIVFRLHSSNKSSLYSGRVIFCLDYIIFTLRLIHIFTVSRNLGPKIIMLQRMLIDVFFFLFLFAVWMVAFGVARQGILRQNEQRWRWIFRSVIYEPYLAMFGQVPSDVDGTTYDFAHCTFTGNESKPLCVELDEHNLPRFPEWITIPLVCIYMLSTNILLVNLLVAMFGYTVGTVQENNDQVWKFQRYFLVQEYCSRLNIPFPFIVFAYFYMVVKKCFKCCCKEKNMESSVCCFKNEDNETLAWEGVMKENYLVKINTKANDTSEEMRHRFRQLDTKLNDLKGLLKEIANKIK

Row | SMILES | IC50 [µM]
1 | NCc1ccncc1-c1ccc(C(=O)CN2C(=O)NC3(CCC(F)(F)CC3)C2=O)cc1 [Example 6-58, 3-(2-(4-(4-(aminomethyl)pyridin-3-yl)phenyl)-2-oxoethyl)-8,8-difluoro-1,3-diazaspiro[4.5]decane-2,4-dione] | < 0.1
2 | O=C(CN1C(=O)NC2(CCC(F)(F)CC2)C1=O)c1ccc(-c2ncnc3ncccc23)cc1 [Example 6-59] | < 0.5
3 | O=C(CN1C(=O)NC2(CCC(F)(F)CC2)C1=O)c1ccc(-c2nccc3cn[nH]c23)cc1 [Example 6-62] | < 0.5
4 | O=C(CN1C(=O)NC2(CCC(F)(F)CC2)C1=O)c1ccc(-c2ncc3ccccn23)cc1 [Example 6-63] | < 0.1
5 | O=C(CN1C(=O)NC2(CCC(F)(F)CC2)C1=O)c1ccc(-c2ncn3ccccc23)cc1 [Example 6-64] | < 0.5
6 | Cc1nc2c(-c3ccc(C(=O)CN4C(=O)NC5(CCC(F)(F)CC5)C4=O)cc3)cccc2[nH]1 [Example 6-65] | < 0.5
7 | O=C(CN1C(=O)NC2(CCC(F)(F)CC2)C1=O)c1ccc(-c2cnn3ccccc23)cc1 [Example 6-67] | < 0.1
8 | O=C(CN1C(=O)NC2(CCC(F)(F)CC2)C1=O)c1ccc(-c2cnn3cccnc23)cc1 [Example 6-68] | < 0.1
9 | Cn1cc2c(-c3ccc(C(=O)CN4C(=O)NC5(CCC(F)(F)CC5)C4=O)cc3)cccc2n1 [Example 6-69] | < 0.5
10 | O=C(CN1C(=O)NC2(CCC(F)(F)CC2)C1=O)c1ccc(-c2cccc3c2CCN3)cc1 [Example 6-72] | < 0.5
11 | Cc1c(N)cncc1-c1ccc(C(=O)CN2C(=O)NC3(CCC(F)(F)CC3)C2=O)cc1 [Example 6-76] | < 0.1
12 | Cc1ccc(C)c(-c2ccc(C(=O)CN3C(=O)NC4(CCC(F)(F)CC4)C3=O)cc2)c1 [Example 6-78] | < 0.5
13 | Nc1cccnc1-c1ccc(C(=O)CN2C(=O)NC3(CCC(F)(F)CC3)C2=O)cc1 [Example 6-80] | < 0.5
14 | O=C(CN1C(=O)NC2(CCC(F)(F)CC2)C1=O)c1ccc(-c2cnc3ccccn23)cc1 [Example 6-81] | < 0.1
15 | Cc1cccnc1-c1ccc(C(=O)CN2C(=O)NC3(CCC(F)(F)CC3)C2=O)cc1 [Example 6-82] | < 0.5
16 | COc1cccnc1-c1ccc(C(=O)CN2C(=O)NC3(CCC(F)(F)CC3)C2=O)cc1 [Example 6-84] | < 0.1
17 | O=C(CN1C(=O)NC2(CCC(F)(F)CC2)C1=O)c1ccc(-c2nccn3ccnc23)cc1 [Example 6-85] | < 0.5
18 | N#Cc1cccnc1-c1ccc(C(=O)CN2C(=O)NC3(CCC(F)(F)CC3)C2=O)cc1 [Example 6-87] | < 0.1
19 | COc1cncc(-c2ccc(C(=O)CN3C(=O)NC4(CCC(F)(F)CC4)C3=O)cc2)c1 [Example 6-90] | < 0.5
20 | Cc1ccc(C#N)c(-c2ccc(C(=O)CN3C(=O)NC4(CCC(F)(F)CC4)C3=O)cc2)n1 [Example 6-92] | < 0.1
21 | N#Cc1cncnc1-c1ccc(C(=O)CN2C(=O)NC3(CCC(F)(F)CC3)C2=O)cc1 [Example 6-93] | < 0.5
22 | O=C(CN1C(=O)NC2(CCC(F)(F)CC2)C1=O)c1ccc(-c2nccs2)cc1 [Example 6-95] | < 0.5
23 | O=C(CN1C(=O)NC2(CCC(F)(F)CC2)C1=O)c1ccc(-c2ccc3ccncc3c2)cc1 [Example 6-96] | < 0.5
24 | COc1nccnc1-c1ccc(C(=O)CN2C(=O)NC3(CCC(F)(F)CC3)C2=O)cc1 [Example 6-97] | < 0.1
25 | N#Cc1cnccc1-c1ccc(C(=O)CN2C(=O)NC3(CCC(F)(F)CC3)C2=O)cc1 [Example 6-98] | < 0.1
26 | NC(=O)c1ccccc1-c1ccc(C(=O)CN2C(=O)NC3(CCC(F)(F)CC3)C2=O)cc1 [Example 6-99] | < 0.5

Row | SMILES | IC50 [µM]
27 | O=C(CN1C(=O)NC2(CCC(F)(F)CC2)C1=O)c1ccc(-c2cnccn2)cc1 [Example 6-100] | < 0.5
28 | CC(=O)c1ccccc1-c1ccc(C(=O)CN2C(=O)NC3(CCC(F)(F)CC3)C2=O)cc1 [Example 6-102] | < 0.5
29 | O=C(CN1C(=O)NC2(CCC(F)(F)CC2)C1=O)c1ccc(-c2ccccc2CN2CCCC2)cc1 [Example 6-104] | < 0.5
30 | O=C(CN1C(=O)NC2(CCC(F)(F)CC2)C1=O)c1ccc(-c2ccccc2CCO)cc1 [Example 6-106] | < 0.1
31 | N#CCc1ccccc1-c1ccc(C(=O)CN2C(=O)NC3(CCC(F)(F)CC3)C2=O)cc1 [Example 6-108] | < 0.1
32 | NC(=O)c1cccc(-c2ccc(C(=O)CN3C(=O)NC4(CCC(F)(F)CC4)C3=O)cc2)c1 [Example 6-110] | < 0.5
33 | Nc1cnccc1-c1ccc(C(=O)CN2C(=O)NC3(CCC(F)(F)CC3)C2=O)cc1 [Example 6-113] | < 0.5
34 | COCc1ccccc1-c1ccc(C(=O)CN2C(=O)NC3(CCC(F)(F)CC3)C2=O)cc1 [Example 6-114] | < 0.1
35 | O=C(CN1C(=O)NC2(CCC(F)(F)CC2)C1=O)c1ccc(-c2cnc3cccnn23)cc1 [Example 6-116] | < 0.1
36 | Nc1nccnc1-c1ccc(C(=O)CN2C(=O)NC3(CCC(F)(F)CC3)C2=O)cc1 [Example 6-117] | < 0.5
37 | O=C(CN1C(=O)NC2(CCC(F)(F)CC2)C1=O)c1ccc(Cc2ccccn2)cc1 [Example 6-119] | < 0.5
38 | N#Cc1ccccc1Cc1ccc(C(=O)CN2C(=O)NC3(CCC(F)(F)CC3)C2=O)cc1 [Example 6-120] | < 0.5
39 | O=C(CN1C(=O)NC2(CCC(F)(F)CC2)C1=O)c1ccc(-c2ccncc2Cl)cc1 [Example 6-122] | < 0.1
40 | Cc1ncccc1-c1ccc(C(=O)CN2C(=O)NC3(CCCCC3)C2=O)cc1 [Example 7-1] | < 0.01
41 | Cc1ccncc1-c1ccc(C(=O)CN2C(=O)NC3(CCCCC3)C2=O)cc1 [Example 7-2] | < 0.1
42 | Cc1ccsc1-c1ccc(C(=O)CN2C(=O)NC3(CCCCC3)C2=O)cc1 [Example 7-3] | < 0.1
43 | Cc1cnc(C)c(-c2ccc(C(=O)CN3C(=O)NC4(CCCCC4)C3=O)cc2)n1 [Example 7-4] | < 0.1
44 | N#Cc1cccc(-c2ccc(C(=O)CN3C(=O)NC4(CCCCC4)C3=O)cc2)n1 [Example 7-5] | < 0.1
45 | Cn1nccc1-c1ccc(C(=O)CN2C(=O)NC3(CCCCC3)C2=O)cc1 [Example 7-6] | < 0.1
46 | O=C(CN1C(=O)NC2(CCCCC2)C1=O)c1ccc(-c2ncccc2CO)cc1 [Example 7-7] | < 0.1
47 | N#Cc1ncccc1-c1ccc(C(=O)CN2C(=O)NC3(CCCCC3)C2=O)cc1 [Example 7-8] | < 0.1
48 | O=C(CN1C(=O)NC2(CCCCC2)C1=O)c1ccc(-c2cnccc2CO)cc1 [Example 7-9] | < 0.1
49 | O=C(CN1C(=O)NC2(CCCCC2)C1=O)c1ccc(-c2nccnc2CO)cc1 [Example 7-10] | < 0.1
50 | O=C(CN1C(=O)NC2(CCCCC2)C1=O)c1ccc(-c2cccnc2CO)cc1 [Example 7-11] | < 0.1
51 | N#Cc1cccnc1-c1ccc(C(=O)CN2C(=O)NC3(CCCCC3)C2=O)cc1 [Example 7-12] | < 0.1
52 | Nc1ncccc1-c1ccc(C(=O)CN2C(=O)NC3(CCCCC3)C2=O)cc1 [Example 7-13] | < 0.1

Row | SMILES | IC50 [µM]
53 | Cc1nccnc1-c1ccc(C(=O)CN2C(=O)NC3(CCCCC3)C2=O)cc1 [Example 7-14] | < 0.1
54 | N#Cc1nccnc1-c1ccc(C(=O)CN2CC3(CCC(F)(F)CC3)OC2=O)cc1 [Example 7-15] | < 0.5
55 | O=C(CN1CC2(CCC(F)(F)CC2)OC1=O)c1ccc(-c2cnccc2CO)cc1 [Example 7-16] | < 0.5
56 | Cc1cnc(C)c(-c2ccc(C(=O)CN3CC4(CCC(F)(F)CC4)OC3=O)cc2)n1 [Example 7-17] | < 0.5
57 | O=C(CN1CC2(CCC(F)(F)CC2)OC1=O)c1ccc(-c2cccnc2CO)cc1 [Example 7-18] | < 0.5
58 | Cc1nccnc1-c1ccc(C(=O)CN2CC3(CCC(F)(F)CC3)OC2=O)cc1 [Example 7-19] | < 0.5
59 | N#Cc1ncccc1-c1ccc(C(=O)CN2CC3(CCC(F)(F)CC3)OC2=O)cc1 [Example 7-20] | < 0.5
60 | Cc1ccnnc1-c1ccc(C(=O)CN2C(=O)OC3(CCC(F)(F)CC3)C2=O)cc1 [Example 7-21] | < 0.1
61 | O=C(CN1C(=O)OC2(CCC(F)(F)CC2)C1=O)c1ccc(-c2nccc3ccncc23)cc1 [Example 7-22] | < 0.01
62 | Cc1ccnnc1-c1ccc(C(=O)CN2C(=O)NC3(CCCCC3)C2=O)cc1 [Example 7-23] | < 0.5
63 | O=C(CN1C(=O)OC2(CCC(F)(F)CC2)C1=O)c1ccc(-c2ccccn2)cc1 [Example 7-24] | < 0.1
64 | N#Cc1cccc(-c2ccc(C(=O)CN3C(=O)OC4(CCC(F)(F)CC4)C3=O)cc2)n1 [Example 7-25] | < 0.1
65 | O=C(CN1C(=O)OC2(CCC(F)(F)CC2)C1=O)c1ccc(-c2ncccn2)cc1 [Example 7-26] | < 0.1
66 | N#Cc1nccnc1-c1ccc(C(=O)CN2C(=O)NC3(CCC(F)(F)CC3)C2=O)cc1F [Example 8-1] | < 0.1
67 | O=C(CN1C(=O)NC2(CCC(F)(F)CC2)C1=O)c1ccc(-c2cnccc2CO)c(F)c1 [Example 8-2] | < 0.1
68 | Cc1nccnc1-c1ccc(C(=O)CN2C(=O)NC3(CCC(F)(F)CC3)C2=O)cc1F [Example 8-3] | < 0.1
69 | N#Cc1ncccc1-c1ccc(C(=O)CN2C(=O)NC3(CCC(F)(F)CC3)C2=O)cc1F [Example 8-4] | < 0.1
70 | O=C(CN1C(=O)NC2(CCC(F)(F)CC2)C1=O)c1ccc(-c2cccnc2CO)c(F)c1 [Example 8-5] | < 0.1
71 | Nc1ccnnc1-c1ccc(C(=O)CN2C(=O)NC3(CCC(F)(F)CC3)C2=O)cc1F [Example 8-6] | < 0.5
72 | Cc1ccnnc1-c1ccc(C(=O)CN2C(=O)NC3(CCC(F)(F)CC3)C2=O)c(F)c1 [Example 8-7] | < 0.1
73 | N#Cc1nccnc1-c1ccc(C(=O)CN2C(=O)NC3(CCC(F)(F)CC3)C2=O)c(F)c1 [Example 8-8] | < 0.1
74 | O=C(CN1C(=O)NC2(CCC(F)(F)CC2)C1=O)c1ccc(-c2nccnc2CO)cc1F [Example 8-9] | < 0.1
75 | Cc1ccncc1-c1ccc(C(=O)CN2C(=O)NC3(CCCCC3)C2=O)cn1 [Example 9-1] | < 0.01
76 | Cc1ccccc1-c1ccc(C(=O)CN2C(=O)NC3(CCCCC3)C2=O)cn1 [Example 9-2] | < 0.01
